Data on 85 molecules can be found in a melting point compilation (Tetko et al.; mined from patent text by program, amines drawn as free bases though some values may be those of a salt).

The melting point is the temperature of the solid-liquid transition. `CN(c1cccc2cc(C3=NCC(CC(=O)N4CCS(=O)(=O)CC4)S3)[nH]c12)S(=O)(=O)c1cccs1` (stereo not given) showed a melting point of 158 °C. The figure for `O=C1NC(=O)C(c2c[nH]c3ccccc23)C1C(=O)c1cn2c3c(cccc13)CCC2` (stereo not given) is 283 to 285 °C. The figure for `Nc1nccn2c(C3CCC3)nc(-c3cccc(OCc4ccccc4)c3F)c12` is 88 to 89 °C. The figure for `CC(C)(C)c1nc2cc(N3CCCC3)c(N)cc2s1` is 130 to 132 °C. Turning to `COC(=O)C(OC)(OC)C(=O)Nc1ccc(Br)cc1C`, the melting point lay in the range of 99 to 103 °C. Regarding `CC(C)(C)C(=O)COc1ccc(Cl)cc1`, the melting point amounted to 58 °C. As for `CCc1nc2cc(S(C)(=O)=O)c(Cl)cc2n1-c1ccc(CCOC(=O)NS(=O)(=O)c2ccc(C)cc2)cc1`, the figure is 105 to 110 °C. As for `CN(CC(=O)C(Cc1ccccc1)NC(=O)c1ccccc1)C(=O)OC(Cc1ccccc1)C(=O)O` (stereo not given), the figure is 52 to 60 °C; as for `O=C1CC2(CCCC2)CC(=O)N1CCCCN1CCN(c2noc3cc(Cl)ccc23)CC1`, 128 °C. `CC(C)(C)c1cc(SCO)cc(C(C)(C)C)c1O` came in with a melting point of 79 to 82 °C.

The molecule `CN1c2ccc(C#CCO)cc2C(O)=C(C(=O)NCc2ccc(Cl)cc2)S1(=O)=O` displayed a melting point of 167 to 168 °C. As for `O=C(c1cccnc1)c1cc(-c2ccncc2)c(N2CCOCC2)s1`, the figure is 124 °C; as for `CCOC(=O)C1=C(C)Nc2ncnn2C1C` (stereo not given), 155 to 157 °C. As for `CN1CC(=O)Nc2cccc(Cl)c2C1=O`, the figure is 230 to 232 °C; as for `COc1cc(-c2ccc(Cl)s2)cc2oc(=O)c(C)c(C)c12`, 152 to 154 °C. Turning to `CSc1cncnc1-c1ssc(=S)c1C`, the melting point was in the range of 89 to 90 °C. As for `O=C(O)c1cc(-c2ncnc(C(F)F)c2Cl)c(F)cc1Cl`, the figure is 217 to 219 °C. The figure for `OCCCCOCCCCOCCCCOCCCCO` is 22 °C. As for `CC(Sc1nnnn1-c1ccccc1)C(=C(C#N)C#N)c1ccccc1` (stereo not given), the figure is 145 to 146 °C; as for `CC1(C)CN(CC(=O)c2ccccc2)c2cc([N+](=O)[O-])ccc2O1`, 125 to 128 °C. `CC(=O)NC[C@H]1CN(c2ccc(C3CCN(C(=O)c4cc5ccccc5[nH]4)CC3)c(F)c2)C(=O)O1` yielded a melting point of 223 to 225 °C. As for `COc1cc(C2C3=C(COC3=O)Nc3ccc4cn[nH]c4c32)cc(OC)c1OC` (stereo not given), the figure is 278 to 279 °C. The figure for `Cn1c(-c2ccc3c(c2)C(C)(C)OC(=O)N3)ccc1[N+](=O)[O-]` is 180 to 185 °C; for `N#Cc1c(NC(=O)c2ccccc2)ccc2ccccc12` it is 205 °C. The figure for `COCOc1cc(F)ccc1-c1cc(-c2cccc(NC(=O)CCN(C)C(=O)OC(C)(C)C)c2)c(C#N)c(NC(=O)c2ccco2)n1` is 172 to 174 °C; for `Fc1c(F)c(F)c(C(Cl)=NNc2ccccc2)c(F)c1F` it is 117 to 118 °C. Molecule `CN(C)C(=O)Nc1ccc(Oc2ccc(Cl)nn2)cc1` had a melting point of 173 to 174 °C.

`CSc1cnc2c(c1)CCC(c1ccc(Cl)c(Cl)c1)O2` (stereo not given) had a melting point of 109 to 111 °C. As for `CC#Cc1c(-c2ccc(S(C)(=O)=O)cc2)cnn(-c2ccc(F)c(F)c2)c1=O`, the figure is 149 to 150 °C.

For the molecule `COC1=C(Cl)C(=O)NC1=Nc1ccccc1`, the melting point is 179 to 180 °C. As for `COc1cc(-n2c(=O)cc(C(F)(F)F)n(C)c2=O)c(F)cc1Br`, the figure is 154 °C; as for `O=C(CCN1CCN(c2cccc(C(F)(F)F)c2)CC1)Nc1ccccc1[N+](=O)[O-]`, 185 to 188 °C. As for `O=C(O)c1ccc(NCC2CCCCCCC2)cc1`, the figure is 160 to 162 °C.

`COC(=O)OCC1OC(Oc2cc(C)cc(O)c2C(=O)CCc2ccc3occc3c2)C(O)C(O)C1O` (stereo not given): the melting point lay within 78 to 82 °C.

As to `COc1cc(OC(C)(C)C(=O)O)c(-c2cccs2)cc1/C=C/C(=O)c1ccc(NS(C)(=O)=O)cc1`, the melting point lay in the range of 181 to 183 °C. Consider `CS(=O)(=O)NCCS(=O)(=O)N1CCN(S(=O)(=O)c2ccc(-c3ccc(C(F)(F)F)cc3)s2)[C@@H](C(=O)NO)C1`, for which the melting point is 105 to 108 °C. As for `Fc1ccc2c(c1)[C@H]1N[C@@H](CNC(c3ccccc3)(c3ccccc3)c3ccccc3)C[C@@H]1c1ccccc1C2`, the figure is 58 to 60 °C. As for `N=C(NO)c1ccc2[nH]cc(CCN3C(=O)c4ccccc4C3=O)c2c1`, the figure is 168 to 170 °C; as for `CCN1C(=O)C(C)(C)C(=O)N(C)c2cc(CN(CCn3cc(C)c4sccc4c3=O)Cc3cnccc3C)ccc21`, 174 to 175 °C. The figure for `CCNc1cccc(C#CCCn2nc3ccccc3n2)n1` is 73 to 78 °C; for `CCOC(=O)c1ccc(NCCCCCCOc2ccc3ccccc3c2)cc1` it is 109 to 110 °C; for `C=CCC12CC(c3ccccc31)c1ccccc12` it is 42 to 43 °C.

For `O=C1CCCN1CCCCCCN1CCCC1=O`, the melting point fell in the range of 101 to 103 °C.

`COc1ccc2[nH]cc(/C=C/C(=O)c3ccncc3)c2c1` came in with a melting point of 236 to 239 °C. The figure for `Cc1ccc(C[C@H]2NC(=O)O[C@H]2c2ccc(F)cc2)cc1OC(F)(F)C(F)F` (racemic) is 112 to 113 °C. Molecule `COc1cc(C(=O)O)ccc1-c1ccc(-c2ccccc2)c(-c2ccc3c(c2)C(C)(C)CCC3(C)C)c1` registered a melting point of 144 to 146 °C. As for `NC(=O)N(O)C1CCC(c2ccccc2)CC1` (stereo not given), the figure is 161 to 162 °C; as for `COc1ccc(S(=O)(=O)C(C)(Cc2ccc(OCCCN3CCC(c4cccc(Cl)c4)CC3)cc2)C(=O)NO)cc1` (stereo not given), 122 °C; as for `COc1ccc(S(=O)(=O)c2ccc(OC)c(CC3CO3)c2)cc1CC1CO1` (stereo not given), 105 to 108 °C. Take `COc1ccc(S(=O)(=O)C2(CCCC#Cc3ccc(C(=O)O)cc3C)SC(=O)NC2=O)cc1` (stereo not given): the melting point was 182 to 184 °C.

`COC(=O)c1ccc(N2C(=O)CCC2(CBr)COC(=O)c2ccccc2)c([N+](=O)[O-])c1` (stereo not given) gave a melting point of 183 to 184 °C.

The molecule `CNC(=C[N+](=O)[O-])NCc1ccc(Cl)nc1` returned a melting point of 181 to 183 °C. The figure for `C[C@]1(CN2CCN(C3CCN(CC=Cc4ccc(OC(F)(F)F)cc4)CC3)CC2)Cn2cc([N+](=O)[O-])nc2O1` is 157 to 158 °C; for `CCCc1c(OCCCOc2ccc(CC(=O)O)cc2F)ccc(C(C)=O)c1O` it is 121 to 123 °C; for `CC(=O)c1ccc(Br)c(S(=O)(=O)Cl)c1` it is 107 °C. The figure for `CCOC(=O)CCC1CCC(=O)N1` (stereo not given) is 60 to 61 °C; for `CCOC(=O)C1CCC2(CCN(S(=O)(=O)c3ccc(C)cc3)c3ccccc3C2)C1O` (stereo not given) it is 139 to 140 °C; for `Cc1ccccc1Cc1cccnn1` it is 88 to 89 °C. `CCc1c(-c2ccc(OC)cc2)c2c3c(c4cc(OC)cc1n42)C(=O)OC3=O` returned a melting point of 249 to 251 °C. As for `C1=C(c2c[nH]c3ccccc23)CCN(CCCOc2cccc3[nH]ccc23)C1`, the figure is 192 to 194 °C; as for `O=C(c1ccnc(Cl)c1)N1CC2(CCN(CC=Cc3ccc(C(F)(F)F)cc3)CC2)c2cc(Cl)ccc21`, 130 °C. As for `CCCC(=O)OCCOc1ccc2oc3cc(C#N)ccc3c(=O)c2c1`, the figure is 145 to 147 °C. Consider `Cc1cccc(C)c1Oc1nc(Cl)nc(Oc2c(C)cccc2C)n1`, for which the melting point is 161 to 162 °C. As for `ClCCN1c2ccc(Cl)cc2C(c2ccsc2)=NCC1CCl` (stereo not given), the figure is 115 to 116 °C; as for `CC(C)NCCCCCOc1ccc(O)cc1`, 95 to 99 °C. As for `CCCCC(=O)Nc1ccc(N)cc1Cl`, the figure is 96.5 to 99 °C; as for `CNC(=O)c1ccccc1I`, 153 to 154 °C; as for `Cc1ccccc1-n1ccc2c(NCCO)nc3c(C)cccc3c21`, 187 to 188 °C. As for `Cc1nc(-n2ccn(CCc3ccc(F)cc3)c2=O)sc1C(=O)NCc1cccnc1`, the figure is 160 to 162 °C; as for `CC(C)(C)OC(=O)NC1CCCCCC=CC2CC2(C(=O)NS(=O)(=O)C2CC2)NC(=O)C2CC(OC(=O)c3ccccn3)CN2C1=O` (stereo not given), 164 to 166 °C. The molecule `Cc1[nH]c(-c2ccccc2)nc1-c1cc(C(C)(C)C)c(O)c(C(C)(C)C)c1` displayed a melting point of 298 to 300 °C. With `CN(Sc1nc2ccccc2s1)C(=O)Oc1cccc2c1OC(C)(C)C2`, the melting point lay in the range of 92 to 93 °C. For the molecule `CC(=O)CN1CCN(C(=O)Cn2c(=O)sc3ncc(Cl)cc32)CC1`, the melting point lay in the range of 191 to 193 °C.

In turn, `COc1ccc2c(c1)C(=O)c1c-2c(Nc2ccc(C(C)=O)cc2)nc2ccccc12` showed a melting point of 251 to 252 °C. As for `O[C@H](COc1cccc2[nH]ccc12)CN1CC=C(c2c[nH]c3c(Cl)c(Cl)ccc23)CC1`, the figure is 140 to 145 °C; as for `CC(=O)NCc1cc(-c2ccccc2)c2c(n1)OCCN(Cc1cc(C(F)(F)F)cc(C(F)(F)F)c1)C2=O`, 223 to 224 °C. As for `CCc1cncc(-c2nc(C(=O)N(C)C)c3c4ccc(Cl)cc4n(C)c3n2)c1`, the figure is 218 to 219 °C. The molecule `Cc1c(NC(=O)c2ccc(Oc3ccccc3)cc2)ccc2cc(CN3CCCC3)cnc12` showed a melting point of 161 to 162 °C.

For `CCNC(=O)Nc1nc2cc(-c3cncnc3)cc(C(=O)NCC)n2n1`, the melting point fell in the range of 317 to 321 °C. `CC(C)(C)[C@H]1CC[C@H](CCC(=O)N2C(=O)OC[C@@H]2Cc2ccccc2)CC1` yielded a melting point of 132 to 135 °C.

Take `NNc1cnc(-c2ccccc2)cn1`: the melting point fell in the range of 98 to 99 °C. The figure for `O=C(O)[C@H](Cc1ccccc1)NS(=O)(=O)c1ccc(N2CCN(c3ccccc3)CC2)cc1` is 192 to 193 °C. The figure for `Cc1cccc(C(=O)NC(Nc2c(Nc3cccnc3)c(=O)c2=O)C(C)(C)Cc2ccncc2)c1` (stereo not given) is 219 to 221 °C. As for `O=c1c2c(N3CCNCC3)cc(Cl)cc2n(Cc2ccccc2)c(=O)n1Cc1ccccc1O`, the figure is 113 to 130 °C; as for `O=C(O)c1ccc(OCCCCc2cc(-c3ccc(C(F)(F)F)cc3)no2)cc1`, 170 to 171 °C.
